{
  "source": "patent US6468567B1",
  "about": "“Malt beverage having stabilized flavor and methods of production thereof” (Cerveceria Polar, C.A., priority 1997, dated 2002)",
  "test": "Addition of 1,2-phenylenediamine to wort (chromatogram)",
  "settings": "wort + 1,2-phenylenediamine versus wort; FIG. 5",
  "description": "FIG. 5. […] A: wort. B: wort+1,2-phenylenediamine.\nA fixed volume (2.2 ml) of 5% 1,2-phenylenediamine (OPD) in methanol was added to a bottle of beer (222 ml) that was then recapped and kept at 20° C. for 12 hours. After 12 hours of reaction, 25 ml of sample were extracted with chloroform (3×8 ml). The chloroform organic phase was removed by centrifugation at 3000 rpm for 10 min, collected, washed with 0.1 M HCl (3×8 ml) in order to remove the unreacted 1,2-phenylenediamine, and semi-dried with magnesium sulfate. The semi-dried organic phase, which contained the hydrophobic quinoxaline derivatives, was then rotavapped to dryness, and the residue resuspended in 250 μl of acetonitrile, and diluted 1/10 (50% solvent A and 50% solvent B) before chromatographic analysis. Hydrophobic quinoxalines were analyzed using Method I (see below). The aqueous phase, containing hydrophilic quinoxalines, was injected directly and analyzed using Method II (see below).\nChromatographic conditions were as follows: a Nova-Pak C18 (Waters) column 3.9×150 mm, 4 μm was used. The mobile phase was: solvent A—95% water (Milli-Q) and 5% acetonitrile; solvent B—90% acetonitrile and 10% water; flow rate 0.7 ml/min. Elution was monitored with a Waters 991 Photodiode Array Detector (200 nm-360 nm).",
  "data": [
    {"smiles": "Nc1ccccc1N", "note": "[1,2-phenylenediamine]", "values": [
      {"measurement": "change in the LC18 peak", "value": "specific reduction"}
    ]}
  ]
}
